The source of these data is ChEMBL document CHEMBL1201862, “PubChem BioAssay data set” (2004).

Test systems include A549; BT-549; COLO 205; HL-60; HOP-92; IGROV-1; K562; LOX IMVI; M14; MOLT-4; NCI-H460; OVCAR-5; SF-268; SF-295; SF-539; SK-MEL-5; UACC-257; UO-31; SR.
Assay in all cases: NCI anticancer screen, dose series, 48 h

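96-well plates; 48 h exposure; 5 concentrations. Endpoints by linear interpolation between flanking doses. Not reached: highest tested concentration assigned. The concentration for 50% growth inhibition is given as GI50.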 Active and inactive are the calls of the source. Rule as the data show it: active = GI50 up to about 1.1 µM and inactive = higher.

As for `COC(=O)c1ccccc1C1CN=NC12Cc1c(C)c3c(c(C)c1C2=O)CCC3` (centres undefined), the GI50 in the test on A549 is > 100 µM (inactive); in the test with BT-549 it was > 100 µM (inactive); in the test with COLO 205, > 100 µM (inactive); in the test on HL-60 it was > 100 µM (inactive); in the test on HOP-92, 22.5 µM (inactive); in the test with IGROV-1 it was > 100 µM (inactive). The GI50 in the test on K562, with LOX IMVI, with M14, in the test with MOLT-4, in the test on NCI-H460 and in the test with OVCAR-5 was > 100 µM (inactive) throughout. Further, the GI50 with SF-268 was > 100 µM (inactive); in the test on SF-295 it was 33.1 µM (inactive); with SF-539, > 100 µM (inactive); in the test with SK-MEL-5, > 100 µM (inactive); with UACC-257, 25.2 µM (inactive); in the test with UO-31, > 100 µM (inactive).

As for `C=CC(C)(C)/C=C/c1ccc(O)cc1`, the GI50 in the test on A549 is 29.1 µM (inactive); in the test on BT-549, 36.5 µM (inactive); in the test with COLO 205 it was 35.5 µM (inactive); in the test on HL-60, 37.6 µM (inactive); in the test with HOP-92, 47 µM (inactive); with IGROV-1, 44 µM (inactive). The GI50 with LOX IMVI is 21.9 µM (inactive); in the test with M14, 43.1 µM (inactive); in the test on MOLT-4, 38.5 µM (inactive); in the test with NCI-H460 it was 19.8 µM (inactive); in the test on OVCAR-5, 46.6 µM (inactive); in the test with SF-268, 33.9 µM (inactive). Also, the GI50 is 27 µM (inactive) in the test on SF-295, 30.1 µM (inactive) in the test with SF-539, 38.5 µM (inactive) in the test with SK-MEL-5 and 24 µM (inactive) with UACC-257.

In the case of `NC(=S)N/N=c1\cc(C(=O)Nc2ccc([N+](=O)[O-])cc2[N+](=O)[O-])oc2ccccc12`, the GI50 in the test with A549 is > 100 µM (inactive); with BT-549, > 100 µM (inactive); with COLO 205, > 100 µM (inactive); in the test with HL-60, > 100 µM (inactive); with HOP-92, 43.5 µM (inactive); in the test on IGROV-1, > 100 µM (inactive). The GI50 in the test on LOX IMVI, in the test on M14, in the test with MOLT-4, with NCI-H460, in the test on OVCAR-5 and in the test on SF-268 was > 100 µM (inactive) throughout. Besides, the GI50 in the test with SF-295 is > 100 µM (inactive); in the test on SF-539 it was > 100 µM (inactive); with SK-MEL-5, > 100 µM (inactive); in the test with UACC-257, > 100 µM (inactive); with UO-31, 29.8 µM (inactive).

With `S=c1[nH]nc(Cn2c3ccc(Br)cc3c3nc4ccccc4nc32)n1C1CCCCC1`, the GI50 was 21.2 µM (inactive) in the test with A549; 52.2 µM (inactive) in the test on BT-549; 21.4 µM (inactive) in the test on IGROV-1; 25.9 µM (inactive) in the test with K562; 29.8 µM (inactive) with M14; 20.2 µM (inactive) with NCI-H460. In addition, the GI50 in the test on OVCAR-5 is 32.5 µM (inactive); with SF-268, 51.6 µM (inactive); in the test on SF-295, 16.7 µM (inactive); in the test with SF-539 it was 18.6 µM (inactive); in the test with SK-MEL-5 it was 6.87 µM (inactive); with SR, 8.13 µM (inactive). Further, the figures for the GI50 with UACC-257 and with UO-31 were 31.6 µM (inactive) and 18.2 µM (inactive), respectively.

On to `N#CC(Nc1ccccc1)c1ccc(C(C#N)Nc2ccccc2)cc1` (centres undefined), for which the GI50 in the test on A549 is > 100 µM (inactive); with BT-549 it was 38.6 µM (inactive); in the test with COLO 205, 27.1 µM (inactive); in the test with HL-60, 5.79 µM (inactive); with HOP-92, 28.1 µM (inactive); in the test on IGROV-1, 34.6 µM (inactive). In addition, the GI50 is 0.724 µM (active) in the test on K562; 1.17 µM (inactive) in the test with LOX IMVI; 13.7 µM (inactive) with M14; 32.2 µM (inactive) in the test on MOLT-4; 44.6 µM (inactive) in the test with NCI-H460; > 100 µM (inactive) with OVCAR-5. Further, the GI50 with SF-268 is > 100 µM (inactive); in the test with SF-295, 40 µM (inactive); with SF-539 it was 25.7 µM (inactive); in the test on SK-MEL-5, 20.3 µM (inactive); in the test on UACC-257, 81.3 µM (inactive); in the test on UO-31, 21.1 µM (inactive).

Regarding `C[C@@H](C(=O)O)N1C(c2ccco2)=C(/C(C=O)=C\c2ccco2)C(=O)/C1=C\c1ccco1`, the GI50 in the test with A549, with BT-549, with COLO 205, in the test on HL-60, with HOP-92 and with IGROV-1 was > 100 µM (inactive) throughout. For the same compound, the GI50 in the test with K562, in the test on LOX IMVI, in the test on M14, with MOLT-4, with OVCAR-5 and in the test with SF-268 was > 100 µM (inactive) in each case. The GI50 in the test with SF-295, in the test with SF-539, in the test on SK-MEL-5, in the test with UACC-257 and with UO-31 was > 100 µM (inactive) throughout.

On to `NS(=O)(=O)c1nnc(NC(=S)NC(=O)Nc2ccc(Cl)c(Cl)c2)s1`, for which the GI50 in the test with A549 is 32 µM (inactive); with BT-549 it was 21.3 µM (inactive); with COLO 205 it was 19.5 µM (inactive); in the test on HL-60, 26.9 µM (inactive); in the test on HOP-92, 13.5 µM (inactive); in the test with IGROV-1, 17.2 µM (inactive). Also, the GI50 in the test on K562 is 30.4 µM (inactive); in the test with LOX IMVI, 17.1 µM (inactive); with M14, 17.9 µM (inactive); in the test on MOLT-4 it was 29 µM (inactive); in the test on OVCAR-5, 25.1 µM (inactive); in the test with SF-268, 27.5 µM (inactive). The GI50 with SF-295 was 21.2 µM (inactive); in the test with SF-539, 2.39 µM (inactive); in the test with SK-MEL-5 it was 21.2 µM (inactive); with UACC-257 it was 23.1 µM (inactive); in the test on UO-31, 20.6 µM (inactive).

Turning to `CCCCSC1=N/C(=C\c2ccc(N(C)C)cc2)C(=O)N1`, the GI50 in the test on A549 is 17.3 µM (inactive); with BT-549, > 100 µM (inactive); in the test on COLO 205, 35.5 µM (inactive); in the test with HL-60 it was 82.8 µM (inactive); in the test with HOP-92, 27.3 µM (inactive); in the test with IGROV-1, 35.3 µM (inactive). Besides, the GI50 with K562 is 44.8 µM (inactive); in the test on LOX IMVI, 28.6 µM (inactive); in the test on M14, 38.9 µM (inactive); in the test on MOLT-4, 57.5 µM (inactive); in the test with NCI-H460 it was 20.8 µM (inactive); in the test with OVCAR-5, 24.4 µM (inactive). The GI50 is 32.8 µM (inactive) with SF-268; 28.4 µM (inactive) with SF-295; 24.5 µM (inactive) with SF-539; 50.5 µM (inactive) in the test on SK-MEL-5; 20.4 µM (inactive) in the test with UACC-257.

For the compound `O=C(NN=C(c1ccccc1)c1ccccc1)/C(O)=C/C(=O)c1ccc(Cl)cc1`, the GI50 in the test on A549 is 27.7 µM (inactive); with BT-549 it was 38.1 µM (inactive); in the test on COLO 205, 19.9 µM (inactive); in the test on IGROV-1, 27.7 µM (inactive); in the test on K562, 43.5 µM (inactive); with M14, > 100 µM (inactive). The GI50 with MOLT-4 is 35 µM (inactive); in the test on NCI-H460 it was 5.5 µM (inactive); with OVCAR-5, > 100 µM (inactive); in the test on SF-268, 36.9 µM (inactive); in the test on SF-295, 34.7 µM (inactive); with SF-539 it was 26.4 µM (inactive). For the same compound, the GI50 with SK-MEL-5 was 29.1 µM (inactive); in the test on SR it was 39.2 µM (inactive); in the test on UACC-257, 37.3 µM (inactive); with UO-31, 29.8 µM (inactive).

Consider `CC(C)C1OC2(C)OC(=N)C1(C#N)C(C#N)(C#N)C2C` (centres undefined), for which the GI50 is > 100 µM (inactive) in the test with A549; 51.6 µM (inactive) in the test with BT-549; 14.5 µM (inactive) in the test on COLO 205; 15.9 µM (inactive) with HL-60; 17.7 µM (inactive) in the test with HOP-92; > 10 µM (inactive) with IGROV-1. The GI50 was 30 µM (inactive) in the test with K562; 19 µM (inactive) with LOX IMVI; 14.6 µM (inactive) in the test on M14; 30.1 µM (inactive) with MOLT-4; 15.8 µM (inactive) in the test with NCI-H460; 25.6 µM (inactive) in the test on OVCAR-5. Also, the GI50 with SF-268 was 20.1 µM (inactive); in the test with SF-295, > 100 µM (inactive); in the test with SF-539 it was 24.6 µM (inactive); in the test with SK-MEL-5 it was 13.7 µM (inactive); with UACC-257, 28.5 µM (inactive); in the test on UO-31, 45.7 µM (inactive).

In the case of `CC(=O)/C(=C\NC(=S)Nc1ccc(S(N)(=O)=O)cc1)C(=O)Nc1ccccc1C`, the GI50 in the test on A549 is 60.4 µM (inactive); in the test with BT-549 it was 33.9 µM (inactive); with COLO 205, 18.5 µM (inactive); in the test with HL-60, 16.1 µM (inactive); with HOP-92, 37.3 µM (inactive); in the test on IGROV-1 it was 55.3 µM (inactive). Further, the GI50 in the test with K562 is 32.4 µM (inactive); in the test with LOX IMVI, 20 µM (inactive); in the test on M14 it was 37.8 µM (inactive); in the test on MOLT-4 it was 28.5 µM (inactive); in the test with NCI-H460, 27 µM (inactive); in the test on OVCAR-5, 99.3 µM (inactive). For the same compound, the GI50 in the test on SF-268 is 99.8 µM (inactive); with SF-295, 36 µM (inactive); with SF-539, 74 µM (inactive); in the test with SK-MEL-5, 44 µM (inactive); with UACC-257 it was 71.6 µM (inactive); in the test with UO-31, 32.4 µM (inactive).

As to `CC1SC2(CCCCC2)N(NC(=O)CSc2nc3ccc(Cl)cc3c(=O)n2-c2ccccc2)C1=O` (centres undefined), the GI50 in the test on A549 is 28.8 µM (inactive); in the test with BT-549, 20.2 µM (inactive); in the test with COLO 205 it was 13.8 µM (inactive); in the test with HL-60, 23.6 µM (inactive); in the test on HOP-92, 22.3 µM (inactive); in the test on IGROV-1 it was 12 µM (inactive). Moreover, the GI50 with K562 was 19.5 µM (inactive); with LOX IMVI, 19.5 µM (inactive); in the test on M14, 20 µM (inactive); with MOLT-4, 7.53 µM (inactive); in the test with NCI-H460, 16.8 µM (inactive); in the test with OVCAR-5, 25.7 µM (inactive). Also, the GI50 with SF-268 was 25.8 µM (inactive); in the test with SF-295 it was 18.5 µM (inactive); in the test with SF-539, 17.3 µM (inactive); with SK-MEL-5 it was 14.3 µM (inactive); in the test on UACC-257 it was 22.8 µM (inactive); in the test with UO-31 it was 21.1 µM (inactive).
